# What was measured:
# [1] = physchem; details: pH 1.5, aqueous buffer, thermodynamic from solid
# Method: (§1) KGA Solubility Test: KGA solubility was quantified by adding excess KGA to UHP water and adjusting pH between 1-6 by addition of 2 M HCl or 2 M KOH with stirring. The samples were mixed, allowed to sit overnight, and then the pH was measured again. The samples were filtered, diluted with a pH 7 phosphate buffer to reduce lactonization and the KGA concentration was quantified by LC. Similarly, KGA solubility in a 25.2 wt. % acetone solution was measured by preparing KGA-saturated solution samples at −20° C., 22° C. and 40° C. and quantified by using the liquid chromatography (LC) method.
# (§2) 15 μl samples were injected into a Phenomenex Luna C18(2) 5 μm, 150 mm×4.6 mm column at a temperature of 35° C. An isocratic mobile phase of 20 mM potassium phosphate at pH 7 was pumped at a flow rate of 0.65 mL/min for 7 min.
# [2] = reported pKa value of glucaric acid; cited from earlier work
# [3] = GA Solubility Test (TGA mass balance of saturated solution); format: physicochemical; details: 4° C.
# Method: GA Solubility Test: Due to the lactonization potential of glucaric acid, the solubility was estimated using thermogravimetric analysis (TGA) based on the mass balance of the saturated solution. A sample of acetone-washed GA was dissolved in 3 mL of the IPA/water mixture (7:1 by mass) to excess, sonicated, and allowed to settle overnight at each of three temperatures: −20° C., 4° C. and 22° C. Next, the solutions were filtered at a pore size of 0.45 μm. These saturated solutions were dropped into an aluminum Differential Scanning calorimetry (DSC) pan and placed on dry ice to partially freeze them and slow the evaporation rate so that the mass of the total solution could be measured by TGA. The partially frozen solution was heated from room temperature at 5° C. per minute to 110° C. and held isothermally for 15 minutes to allow the solvent to evaporate. In this way, the mass of the remaining species in the pan was determined to μg precision. This was taken to be the total mass of GA that had dissolved in the solvent, including possible lactone products, in a catch-all method.
# [4] = Enthalpy and entropy of dissolution from Van't Hoff plot of solubility versus temperature; format: physicochemical
# Method: The enthalpy and entropy of dissolution of KGA and GA. The enthalpy and entropy of dissolution are calculated here using the solubility of KGA and GA in solutions of identical solvent composition as a function of temperature. The solubility of KGA and GA and related thermodynamic properties (enthalpy and entropy of dissolution) are important because they can be used for building a crystallization model and optimizing crystallization conditions in a large scale process. Accordingly, using the solubility data obtained for each compound (FIG. 2B), the enthalpy and entropy of dissolution of both KGA and GA were calculated using the Van't Hoff equation.
# In Equation 1, x is the mole fraction of a compound in the solvent, Δ_dis H and Δ_dis S are the enthalpy and the entropy of dissolution, T is the absolute temperature, and R represents the ideal gas constant. The solubility of KGA or GA was measured by varying temperature to plot ln x versus 1/T, and the resulting values of enthalpy and entropy of dissolution was determined from the slope and the intercept, respectively.
# The antisolvent loading in each mixture is the same as used in each purification process. Table 4 provides the dissolution enthalpy and entropy of both KGA and GA calculated from Eq. (1) using the linear fits in FIG. 5. […] The […] of GA solubility data yields a negative entropy of dissolution for GA. This could be because dissolved GA is in equilibrium with lactones, and they form dimers or organized structures that are represented by this value.
# [5] = 300 K, cited from earlier work
# [6] = KGA Solubility Test (glucarate solubility at various pH in water and acetone/water, quantified by LC); details: for solubility: 22 °C, thermodynamic from solid
# Method: as §1, §2
# [7] = Reported pKa values of glucaric acid and molar speciation calculated from them; format: physicochemical; details: at pH 3.6, calculated from reported pKa values
# From the text: The inset photo is the KGA precipitate from broth pH adjusted to 3.5 (left) and broth pH adjusted to 3.5 with acetone 25 wt. % acetone addition (right).
smiles,measurement,setting,value
"O=C(O)[C@@H](O)[C@@H](O)[C@H](O)[C@@H](O)C(=O)O [GA, glucaric acid]",solubility,[1],26 mg/mL
same,pKa1,[2],3.17
same,pKa2,[2],3.96
same,solubility in IPA-water lower than that in ACN-water,[3],53%
same,solubility in IPA-water lower than that in water,[3],77%
same,higher solubility than KGA,pH 1.5,56%
same,solubility increase as pH is decreased,pH 3.1,about 55%
same,AdisH,[4]; solvent Isopropanol 87.5 wt. %,3.68 kJ/mol
same,AdisS,[4]; solvent Isopropanol 87.5 wt. %,−40.78 J/mol/K
same,Rate constant k2,"[5]; GA → 1,4-lactone",4.84e-05 s⁻¹
same,Rate constant k3,"[5]; GA → 6,3-lactone",5.52e-05 s⁻¹
"O=C1O[C@H]([C@@H](O)C(=O)O)[C@H](O)[C@@H]1O [6,3-lactone, D-glucaro-6,3-lactone]",Rate constant k7,"[5]; 6,3-lactone → 1,4:6,3-dilactone (so in the source)",0.000664 s⁻¹
same,Rate constant k5,"[5]; 6,3-lactone → 1,4:6,3-dilactone",0.000174 s⁻¹
same,Rate constant k4,"[5]; 6,3-lactone → GA",8.7e-05 s⁻¹
"O=C1O[C@H]2[C@H](OC(=O)[C@@H]2O)[C@@H]1O [1,4:6,3-dilactone, D-glucaro-1,4:6,3-dilactone]",Rate constant k8,"[5]; 1,4:6,3-dilactone → 6,3-lactone (so in the source)",5.01e-05 s⁻¹
same,Rate constant k6,"[5]; 1,4:6,3-dilactone → 6,3-lactone",0.00197 s⁻¹
"O=C([O-])[C@@H](O)[C@@H](O)[C@H](O)[C@@H](O)C(=O)[O-].[K+].[K+] [K2GA, dipotassium glucarate]",solubility,[6]; aqueous buffer,> 120 mg/mL
"O=C(O)[C@@H](O)[C@@H](O)[C@H](O)[C@@H](O)C(=O)[O-].[K+] [KGA, monopotassium glucarate]",maximum concentration (molar fraction) of KGA form,[7],55 mol %
same,solubility,"[6]; pH 3.5, aqueous buffer",~16 mg/mL
same,solubility,"[6]; pH 3.5, aqueous with cosolvent or surfactant or cyclodextrin",~8.1 mg/mL
same,additional reduction of solubility by adding acetone,"[6]; acetone 25 wt. %, pH 3.5",50%
same,solubility in broth,"[6]; fermentation broth, pH 3.5, acetone (30 vol %)",almost zero
same,saturation limit in high purity water,"[6]; high purity water, no pH adjustment",0.06 M
same,solubility relative to the solubility of K2GA at pH 5.8,[6]; pH 3.5,13.5 mol %
same,AdisH,[4]; solvent Acetone 24.7 wt. %,31.96 kJ/mol
same,AdisS,[4]; solvent Acetone 24.7 wt. %,35.70 J/mol/K
"O=C(O)[C@@H](O)[C@H]1OC(=O)[C@H](O)[C@H]1O [1,4-lactone, D-glucaro-1,4-lactone]",Rate constant k1,"[5]; 1,4-lactone → GA",7.04e-05 s⁻¹

# Reference: patent publication US20240391861A1, “PROCESS FOR THE RECOVERY OF MONOPOTASSIUM GLUCARATE AND GLUCARIC ACID” (Alliance for Sustainable Energy, LLC, priority 2021, published 2024)
